Laboratory results published in patent US20230263786A1, “MODULATION OF DRUG-DRUG INTERACTIONS OF VADADUSTAT” (Akebia Therapeutics, Inc., priority 2020, published 2023).
Where two headings read alike, the source gives them in different places.

Key:
[1] = Plasma pharmacokinetics, 150/300/600 mg once daily, first day; type: in vivo; settings: male, human, healthy adult men
CYP2B6 = target: T1, CYP2B6 (Homo sapiens, UniProt P20813); assay: CYP2B6 inhibition in vitro; type: in vitro ADME
T1 sequence (P20813 1-491): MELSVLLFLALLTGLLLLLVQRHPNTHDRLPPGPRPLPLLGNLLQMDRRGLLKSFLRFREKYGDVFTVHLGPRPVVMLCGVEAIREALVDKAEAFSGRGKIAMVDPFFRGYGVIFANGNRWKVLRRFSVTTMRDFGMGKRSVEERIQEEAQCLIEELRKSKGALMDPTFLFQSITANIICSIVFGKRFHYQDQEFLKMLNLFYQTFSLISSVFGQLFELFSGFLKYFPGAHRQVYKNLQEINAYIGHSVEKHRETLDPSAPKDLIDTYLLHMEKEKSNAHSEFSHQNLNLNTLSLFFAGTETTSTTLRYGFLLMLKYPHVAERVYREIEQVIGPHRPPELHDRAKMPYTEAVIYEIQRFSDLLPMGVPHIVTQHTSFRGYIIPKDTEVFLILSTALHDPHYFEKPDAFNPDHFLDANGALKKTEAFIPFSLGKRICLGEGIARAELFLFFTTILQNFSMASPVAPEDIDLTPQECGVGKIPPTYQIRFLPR

[2] = Influence of meal on pharmacokinetics, single 450 mg dose; settings: male, human, in vivo, oral
Protocol: The median tmax of this drug was prolonged by postprandial administration for about 1.5 hours as compared with fasting.

human PHD1 = human PHD1 (Homo sapiens, UniProt Q96KS0); assay: PHD inhibitory action, PHD1; type: biochemical; settings: in vitro
Chain of human PHD1 (Q96KS0 whole entry): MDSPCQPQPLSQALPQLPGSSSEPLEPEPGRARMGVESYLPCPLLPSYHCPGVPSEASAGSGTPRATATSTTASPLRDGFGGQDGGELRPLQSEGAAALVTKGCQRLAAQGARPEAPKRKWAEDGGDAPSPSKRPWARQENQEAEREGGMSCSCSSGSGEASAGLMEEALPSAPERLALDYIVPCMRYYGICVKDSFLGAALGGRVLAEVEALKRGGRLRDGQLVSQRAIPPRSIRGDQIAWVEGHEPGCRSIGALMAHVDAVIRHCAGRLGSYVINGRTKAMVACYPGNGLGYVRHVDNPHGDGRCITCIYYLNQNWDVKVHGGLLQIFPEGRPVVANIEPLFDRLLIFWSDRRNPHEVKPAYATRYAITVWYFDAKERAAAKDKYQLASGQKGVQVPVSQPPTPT

[3] = Phase I calcium acetate interaction study; type: in vivo, human; settings: for AUC(0-t) / Cmax / Tmax / AUC(0-inf) / clearance / half-life / Vd: human, plasma, oral; for Tmax: median; for clearance: read-out: Clearance (ClB) (converted); for half-life: read-out: Elimination half-life (t1/2) (converted); for Vd: read-out: Volume of distribution (Vc)
Protocol: A phase I, open-label, fixed-sequence study was conducted in healthy adult subjects to assess the effect of 1) a single oral dose of calcium acetate on the pharmacokinetics of a single oral dose of vadadustat.
The study included screening (28 days maximum), 9-day treatment period, and a 14-day follow-up period post last dose.
Pharmacokinetics. A predose PK blood sample was collected on Day 1. After each dose of vadadustat administered (Days 1, 3, 5, and 7), blood samples for PK analysis were collected at the following time points: predose and 0.5, 1, 1.5, 2, 3, 4, 6, 9, 12, 16, 24, and 48 hours after each dose of vadadustat. The 48-hour postdose sample was collected before vadadustat administration on Days 3, 5, and 7. The following parameters were calculated and analyzed: AUC0-∞, AUC0-last, Cmax, Tmax, Kel, CIB, Vc/F, and t1/2.
Subjects were dosed approximately at the same designated time on each dosing day, where applicable. Study drugs were administered with approximately 8 ounces (240 mL) of water at room temperature in a seated position. Subjects were instructed to drink the full 8 ounces of water, and not to chew or break the tablets/gelcaps.
The 9-day treatment period was conducted as follows: • Day 1: vadadustat administered immediately after consuming breakfast. • Day 2: wash-out (no investigational product administration). • Day 3: vadadustat administered concomitantly with the requisite phosphate binder immediately after consuming breakfast. • Day 4: wash-out (no investigational product administration). • Day 5: vadadustat administered in fasted condition and the phosphate binder administered 1 hour later (breakfast must be served within 2 minutes after phosphate binder administration and consumed immediately after it is served). • Day 6: wash-out (no investigational product administration). • Day 7: phosphate binder administered immediately after consuming breakfast; vadadustat administered 2 hours after the phosphate binder was administered. • Day 8: wash-out (no investigational product administration). • Day 9: subjects discharged from the Clinical Research Unit (CRU) after the 48-hour postdose PK blood sample has been collected.
A single oral dose of vadadustat 300 mg (2×150 mg tablets) was administered on Days 1, 3, 5, and 7. Phosphate binder that is calcium acetate (1334 mg, 2×667 mg gelcaps) was administered on Days 3, 5, and 7.

CYP2C8 = target: T2, CYP2C8 (Homo sapiens, UniProt P10632); assay: CYP2C8 inhibition in vitro; type: in vitro ADME
T2 sequence (P10632 1-490): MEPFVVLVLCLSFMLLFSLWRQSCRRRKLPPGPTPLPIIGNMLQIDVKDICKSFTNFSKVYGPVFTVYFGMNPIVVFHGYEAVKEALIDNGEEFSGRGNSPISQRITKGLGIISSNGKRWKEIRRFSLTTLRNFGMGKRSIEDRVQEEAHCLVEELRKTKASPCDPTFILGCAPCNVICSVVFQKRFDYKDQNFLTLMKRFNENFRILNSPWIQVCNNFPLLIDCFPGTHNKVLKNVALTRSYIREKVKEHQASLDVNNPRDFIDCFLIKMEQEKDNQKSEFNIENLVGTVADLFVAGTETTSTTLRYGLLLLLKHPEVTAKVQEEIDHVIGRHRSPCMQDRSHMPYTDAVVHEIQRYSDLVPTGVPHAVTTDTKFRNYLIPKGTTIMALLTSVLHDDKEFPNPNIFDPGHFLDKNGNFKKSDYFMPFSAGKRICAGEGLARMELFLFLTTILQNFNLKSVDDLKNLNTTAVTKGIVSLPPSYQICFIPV

[4] = After Meal, healthy adult males
[5] = concomitant administration of phosphate binder, ANOVA
[6] = 300 mg, Concomitant administration with calcium acetate 1334 mg after breakfast
[7] = 300 mg, Vadadustat 300 mg alone, immediately after breakfast
[8] = 300 mg, Vadadustat administered 1 hour prior to calcium acetate, fasting
[9] = 300 mg, Vadadustat administered 2 hours after calcium acetate

O=C(O)CNC(=O)c1ncc(-c2cccc(Cl)c2)cc1O [Compound 1, {[5-(3-chlorophenyl)-3-hydroxypyridine-2-carbonyl]amino}acetic acid]
AUC(0-t) ([1]; 150 mg once daily): 123 ± 30.5 µg·h/mL | Cmax ([1]; 150 mg once daily): 24200 ± 4990 ng/mL | Tmax ([1]; 150 mg once daily): 0.75 h | half-life ([1]; 150 mg once daily): 5.96 ± 0.914 h | AUC(0-t) ([1]; 300 mg once daily): 289 ± 75.3 µg·h/mL | Cmax ([1]; 300 mg once daily): 44300 ± 10800 ng/mL | Tmax ([1]; 300 mg once daily): 1.95 h | half-life ([1]; 300 mg once daily): 6.14 ± 0.763 h | AUC(0-t) ([1]; 600 mg once daily): 624 ± 205 µg·h/mL | Cmax ([1]; 600 mg once daily): 84800 ± 22300 ng/mL | Tmax ([1]; 600 mg once daily): 1.98 h | half-life ([1]; 600 mg once daily): 6.07 ± 0.419 h | inhibitory effect on CYP2B6 (CYP2B6): inhibitory effect | AUC(0-inf) [2, 4]: 351 ± 101 µg·h/mL | Cmax [2, 4]: 46300 ± 12200 ng/mL | Tmax ([2]; After Meal, healthy adult males, read-out: tmax): 3.52 h | AUC(0-inf) ([2]; Fasting, healthy adult males): 371 ± 100 µg·h/mL | Cmax ([2]; Fasting, healthy adult males): 63100 ± 14600 ng/mL | Tmax ([2]; Fasting, healthy adult males, read-out: tmax): 2 h | Tmax ([2]; compared with fasting, read-out: prolongation of median tmax by postprandial administration): ~1.5 h | IC50 (human PHD1): 15.4 nM | reduction of AUC0-last and AUC0-∞ [3, 5]: about 55% | reduction of Cmax [3, 5]: about 51% | AUC(0-t) [3, 6]: 77.4 ± 31.7 µg·h/mL | Cmax [3, 6]: 11300 ± 4390 ng/mL | Tmax [3, 6]: 4 h | AUC(0-inf) ([3]; 300 mg, Concomitant administration with calcium acetate 1334 mg after breakfast, read-out: AUC0-∞): 79.6 ± 32.7 µg·h/mL | clearance [3, 6]: 77.3 mL/min | half-life [3, 6]: 4.58 ± 0.9 h | Vd [3, 6]: 29.8 ± 14.6 L | AUC(0-t) [3, 7]: 163 ± 45.7 µg·h/mL | Cmax [3, 7]: 21900 ± 5610 ng/mL | Tmax [3, 7]: 3.93 h | AUC(0-inf) ([3]; 300 mg, Vadadustat 300 mg alone, immediately after breakfast, read-out: AUC0-∞): 166 ± 45.4 µg·h/mL | clearance [3, 7]: 31.8 mL/min | half-life [3, 7]: 4.75 ± 1.2 h | Vd [3, 7]: 12.6 ± 2.41 L | AUC(0-t) [3, 8]: 130 ± 36.2 µg·h/mL | Cmax [3, 8]: 25000 ± 9560 ng/mL | Tmax [3, 8]: 1.44 h | AUC(0-inf) ([3]; 300 mg, Vadadustat administered 1 hour prior to calcium acetate, fasting, read-out: AUC0-∞): 133 ± 36.8 µg·h/mL | clearance [3, 8]: 40.3 mL/min | half-life [3, 8]: 4.47 ± 0.75 h | Vd [3, 8]: 15.3 ± 3.25 L | AUC(0-t) [3, 9]: 132 ± 44.3 µg·h/mL | Cmax [3, 9]: 24600 ± 7130 ng/mL | Tmax [3, 9]: 2.97 h | AUC(0-inf) ([3]; 300 mg, Vadadustat administered 2 hours after calcium acetate, read-out: AUC0-∞): 135 ± 44.3 µg·h/mL | clearance [3, 9]: 42.2 mL/min | half-life [3, 9]: 4.84 ± 1.03 h | Vd [3, 9]: 17.8 ± 9.99 L | AUC(0-inf) ([3]; vadadustat administered concurrently with calcium acetate, read-out: geometric LS mean AUC0-∞): 72.4 µg·h/mL | changes in vadadustat exposure ([3]; vadadustat administered 1 hour prior to calcium acetate): within the prespecified no-effect boundaries of 80% to 125% | changes in vadadustat exposure ([3]; vadadustat administered 2 hours after calcium acetate): within the prespecified no-effect boundaries of 80% to 125% | inhibitory effect on CYP2C8 (CYP2C8): inhibitory effect
